# Experiment: Energy expenditure by indirect calorimetry, dose-response clinical trial
# Assay type: in vivo, human
# Conditions: for Energy Expenditure: obese non-diabetic females with NAFLD; for Total Energy Expenditure, From (start value): baseline; for Total Energy Expenditure, to (end value): end of trial
# Excerpt: Obese subjects diagnosed with NAFLD and with apparently healthy liver (HL) were matched in pairs based on age, body weight and body fat mass and were randomly divided into Experimental NAFLD group (n=36), Placebo NAFLD (n=36), Experimental HL (n=19) and Placebo-HL group (n=19). Subjects were randomly assigned, in equal numbers, to the phytomedicine experimental groups and the Placebo control group, using the Simple Randomization Procedure. Their daily dietary intake was restricted to 1800±100 kcals, of which 50±5% was in the form of carbohydrates, 30±5% from protein, and 20±5% from fat. Subjects were also instructed to consume all the foods and beverages designated by dieticians and provided by the Institute, and to eat no other food or high calories beverages. Patients were directed to take Experimental Sample and/or Placebo three times a day before meals. During the clinical phase, subjects were required to visit a designated hospital three times a week for physiological and biochemical analysis. Institute provided all foods and beverages by designated dieticians and labeled as B, L, and D for breakfast, lunch and dinner, respectively.
# Measurements of Fat Oxidation by Indirect Calorimetry
# Energy expenditure (EE) and substrate oxidations were measured by indirect calorimetry as described previously (Ranneries et al., 1998). Oxygen was measured with an electrochemical oxygen sensor, and carbon dioxide was measured by an infrared carbon dioxide sensor (Ametec Carbon Dioxide Analyzer). Calculations of EE and substrate oxidation rates were performed as previously described (Astrup et al., 1991). Protein oxidation was assumed to be constant and amounting to 15% of EE. The error of calculating EE by omitting the exact correction from urinary nitrogen was negligible and impossible to estimate during such a short period of time. The reliability was assessed by the coefficient of variation on resting energy expenditure repeated every week.
# This effect was clearly dose-dependent phenomenon. […] Based on our dose-response trial, the optimum dose of Experimental Sample was established as 600 mg per day, which was used in further clinical trials.
substance,measurement,setting,value
Fucoxanthin,increase in daily energy expenditure rate,25 mg fucoxanthin alone,1152 ± 290 kJ/day
same,Energy Expenditure,"Fucoxanthin 10 mg per day, 2 weeks",5.69 ± 0.21 kJ/min
same,Energy Expenditure,"Fucoxanthin 10 mg per day, 5 weeks",5.93 ± 0.15 kJ/min
same,Energy Expenditure,"Fucoxanthin 10 mg per day, 10 weeks",5.69 ± 0.21 kJ/min
same,Energy Expenditure,"Fucoxanthin 10 mg per day, 16 weeks",5.98 ± 0.18 kJ/min
same,Energy Expenditure,"Fucoxanthin 10 mg per day, Baseline",5.82 ± 0.18 kJ/min
same,"Total Energy Expenditure, From (start value)",Fucoxanthin 10 mg per day,8381 kJ/24 h
same,"Total Energy Expenditure, to (end value)",Fucoxanthin 10 mg per day,8611 kJ/24 h
same,"Change in Total Energy Expenditure, Net","Fucoxanthin 10 mg per day, p < NS vs placebo",Net 230 ± 147 kJ/24 h
same,Energy Expenditure,"Fucoxanthin 15 mg per day, 2 weeks",5.89 ± 0.14 kJ/min
same,Energy Expenditure,"Fucoxanthin 15 mg per day, 5 weeks",5.98 ± 0.17 kJ/min
same,Energy Expenditure,"Fucoxanthin 15 mg per day, 10 weeks",6.11 ± 0.21 kJ/min
same,Energy Expenditure,"Fucoxanthin 15 mg per day, 16 weeks",6.39 ± 0.17 kJ/min
same,Energy Expenditure,"Fucoxanthin 15 mg per day, Baseline",5.85 ± 0.27 kJ/min
same,"Total Energy Expenditure, From (start value)",Fucoxanthin 15 mg per day,8424 kJ/24 h
same,"Total Energy Expenditure, to (end value)",Fucoxanthin 15 mg per day,9202 kJ/24 h
same,"Change in Total Energy Expenditure, Net","Fucoxanthin 15 mg per day, p < 0.05 vs placebo",Net 778 ± 260 kJ/24 h
same,Energy Expenditure,"Fucoxanthin 25 mg per day, 2 weeks",6.02 ± 0.23 kJ/min
same,Energy Expenditure,"Fucoxanthin 25 mg per day, 5 weeks",5.92 ± 0.27 kJ/min
same,Energy Expenditure,"Fucoxanthin 25 mg per day, 10 weeks",6.29 ± 0.31 kJ/min
same,Energy Expenditure,"Fucoxanthin 25 mg per day, 16 weeks",6.72 ± 0.22 kJ/min
same,Energy Expenditure,"Fucoxanthin 25 mg per day, Baseline",5.92 ± 0.16 kJ/min
same,"Total Energy Expenditure, From (start value)",Fucoxanthin 25 mg per day,8525 kJ/24 h
same,"Total Energy Expenditure, to (end value)",Fucoxanthin 25 mg per day,9677 kJ/24 h
same,"Change in Total Energy Expenditure, Net","Fucoxanthin 25 mg per day, p < 0.05 vs placebo",Net 1152 ± 290 kJ/24 h
same,Energy Expenditure,"Fucoxanthin 50 mg per day, 2 weeks",5.91 ± 0.31 kJ/min
same,Energy Expenditure,"Fucoxanthin 50 mg per day, 5 weeks",6.32 ± 0.22 kJ/min
same,Energy Expenditure,"Fucoxanthin 50 mg per day, 10 weeks",6.92 ± 0.31 kJ/min
same,Energy Expenditure,"Fucoxanthin 50 mg per day, 16 weeks",7.37 ± 0.35 kJ/min
same,Energy Expenditure,"Fucoxanthin 50 mg per day, Baseline",6.04 ± 0.24 kJ/min
same,"Total Energy Expenditure, to (end value)",Fucoxanthin 50 mg per day,"10613, kJ/24 h"
same,"Change in Total Energy Expenditure, Net","Fucoxanthin 50 mg per day, p < 0.001 vs placebo",Net 1915 ± 246 kJ/24 h
